Here are results for 78 compounds from the Kinase Knowledgebase extract (Sharma et al. 2016).

The test deals with PIK3CD (Human) (UniProt O00329). Nature of the test: Assessment of PIK3CD Kinase Activity (Scintillation Proximity Assay). Background: In a scintillation proximity assay essentially only radioactivity close to the scintillant gives light.
Sequence of PIK3CD (Human) (O00329 whole entry, looked up): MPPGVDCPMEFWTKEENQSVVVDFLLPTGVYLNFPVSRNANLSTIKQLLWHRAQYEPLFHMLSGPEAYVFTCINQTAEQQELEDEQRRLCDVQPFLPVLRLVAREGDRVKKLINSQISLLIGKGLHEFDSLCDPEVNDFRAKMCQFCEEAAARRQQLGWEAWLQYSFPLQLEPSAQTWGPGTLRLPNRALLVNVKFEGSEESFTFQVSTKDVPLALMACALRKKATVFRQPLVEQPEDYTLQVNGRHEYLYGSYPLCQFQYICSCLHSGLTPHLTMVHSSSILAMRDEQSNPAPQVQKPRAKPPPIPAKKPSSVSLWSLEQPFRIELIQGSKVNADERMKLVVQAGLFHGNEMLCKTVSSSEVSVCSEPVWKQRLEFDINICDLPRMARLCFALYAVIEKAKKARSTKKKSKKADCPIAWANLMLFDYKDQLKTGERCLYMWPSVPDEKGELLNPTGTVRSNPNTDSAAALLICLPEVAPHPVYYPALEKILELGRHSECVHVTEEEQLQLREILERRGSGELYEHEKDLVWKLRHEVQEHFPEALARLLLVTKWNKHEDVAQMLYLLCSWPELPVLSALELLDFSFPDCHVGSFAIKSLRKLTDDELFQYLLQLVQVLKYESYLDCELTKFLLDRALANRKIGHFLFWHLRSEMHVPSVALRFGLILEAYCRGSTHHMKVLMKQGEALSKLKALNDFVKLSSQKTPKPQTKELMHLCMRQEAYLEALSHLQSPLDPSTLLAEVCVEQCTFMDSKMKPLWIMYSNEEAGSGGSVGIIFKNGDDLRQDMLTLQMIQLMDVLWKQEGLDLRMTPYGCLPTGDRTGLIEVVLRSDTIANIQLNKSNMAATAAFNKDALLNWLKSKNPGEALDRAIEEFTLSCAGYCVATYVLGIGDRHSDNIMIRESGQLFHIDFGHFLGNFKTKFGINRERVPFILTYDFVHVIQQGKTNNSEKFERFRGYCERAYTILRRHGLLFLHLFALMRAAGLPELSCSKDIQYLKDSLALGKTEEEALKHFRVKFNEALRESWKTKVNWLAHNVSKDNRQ

A word on the IC50: it is the concentration needed to halve the response being measured. Lower therefore signals higher potency. On to `COc1c(C(C)n2nc(C(F)F)c3c(N)ncnc32)cc(C#N)c(C)c1C1CN(C[C@H](C)O)C1` (stereo partly drawn), for which the IC50 was no more than 10 nM. Regarding `CCOc1c(C(C)n2nc(C)c3c(N)ncnc32)cc(Cl)c(C#N)c1C1CN(C)C1` (stereo not drawn), the IC50 was no more than 10 nM. In the case of `CNC(=O)CCc1c(C)c(Cl)cc(C(C)n2nc(C)c3c(N)ncnc32)c1OC` (stereo not drawn), the IC50 is no more than 10 nM. The value for `COc1c(C(C)n2nc(C)c3c(N)ncnc32)cc(Cl)c(C)c1-c1cnn(C2CCN(C)CC2)c1` (stereo not drawn) was no more than 10 nM; that for `CCOc1c(C(C)n2ccc(=O)c3c(N)ncnc32)cc(Cl)c(C)c1C1CN(C(C)C)C1` (stereo not drawn) was no more than 10 nM. `CCOc1c(C(C)n2nc(C)c3c(N)ncnc32)cc(Cl)c(C#N)c1C1CN(C(C)C)C1` (stereo not drawn) showed an IC50 of no more than 10 nM.

In the case of `CCNC(=O)c1c(C)c(Cl)cc(C(C)n2nc(-c3ccc4cn[nH]c4c3)c3c(N)ncnc32)c1OCC` (stereo not drawn), the IC50 is no more than 10 nM. As for `COc1c(C(C)n2nc(C(F)F)c3c(N)ncnc32)cc(C#N)c(C)c1C1CN(CC(C)(C)O)C1` (stereo not drawn), the IC50 was no more than 10 nM. Regarding `COc1c(C(C)n2nc(C)c3c(N)ncnc32)cc(Cl)c(C)c1-c1cncc(C(=O)N2CC(C#N)C2)c1` (stereo not drawn), the IC50 was no more than 10 nM.

The compound `CCOc1c(C(C)n2nc(-c3cccc(F)c3)c3c(N)ncnc32)cc(Cl)c(C)c1-c1ccc(C(=O)N(C)C)nc1` (stereo not drawn) had an IC50 of no more than 10 nM. With `CCN1CC(c2c(C#N)c(Cl)cc(C(C)n3nc(C)c4c(N)ncnc43)c2OC)C1` (stereo not drawn), the IC50 was no more than 10 nM. Consider `CCOc1c(C(C)n2nc(C)c3c(N)ncnc32)cc(C)c(C#N)c1N1CCCC1` (stereo not drawn), for which the IC50 was no more than 10 nM. The value for `CCOc1c(C(C)n2nc(C)c3c(N)ncnc32)cc(Cl)c(F)c1C1CN(CC)C1` (stereo not drawn) was no more than 10 nM; that for `CNC(=O)[C@H](C)N1CC(c2c(C)c(C#N)cc(C(C)n3nc(C(F)F)c4c(N)ncnc43)c2OC)C1` (stereo partly drawn) was no more than 10 nM; that for `CCOc1c(C(C)n2nc(C)c3c(N)ncnc32)cc(Cl)c(C)c1-c1ccc(C(=O)N(C)C)cn1` (stereo not drawn) was no more than 10 nM. `CCOc1c(C(C)n2nc(C)c3c(N)ncnc32)cc(Cl)c(C#N)c1-c1cncc(S(C)(=O)=O)c1` (stereo not drawn) yielded an IC50 of no more than 10 nM.

The compound `CCOc1c(C(C)n2nc(C)c3c(N)ncnc32)cc(Cl)c(C#N)c1C1CCOC1` (stereo not drawn) returned an IC50 of no more than 10 nM. The value for `COc1c(C(C)n2nc(C)c3c(N)ncnc32)cc(Cl)c(C)c1C1CN(CCO)C1` (stereo not drawn) was no more than 10 nM; that for `COc1c(C(C)n2nc(C)c3c(N)ncnc32)cc(Cl)c(C)c1-c1ccc(C(=O)N(C)C)c(F)c1` (stereo not drawn) was no more than 10 nM. With `COc1c(C(C)n2nc(C(F)F)c3c(N)ncnc32)cc(C#N)c(C)c1C1CN(C(C)C)C1` (stereo not drawn) the figure was no more than 10 nM; with `CCOc1c(C(C)n2nc(C)c3c(N)ncnc32)cc(Cl)c(C#N)c1-c1ccc(C2=[N+][N+]=C(C)O2)nc1` (stereo not drawn), no more than 10 nM.

With `CCOc1c(C(C)n2nc(C)c3c(N)ncnc32)cc(Cl)c(C#N)c1C1CN(S(C)(=O)=O)C1` (stereo not drawn), the IC50 is no more than 10 nM. With `COc1c(C(C)n2nc(-c3cnn(C)c3)c3c(N)ncnc32)cc(Cl)c(C)c1C1CN(CC#N)C1` (stereo not drawn) the figure was no more than 10 nM. On to `CNC(=O)[C@@H](C)N1CC(c2c(C)c(Cl)cc(C(C)n3nc(C)c4c(N)ncnc43)c2OC)C1` (stereo partly drawn), for which the IC50 is no more than 10 nM.

For the compound `CNC(=O)N1CC(c2c(C)c(Cl)cc(C(C)n3nc(C)c4c(N)ncnc43)c2OC)C1` (stereo not drawn), the IC50 is no more than 10 nM. Compound `CCOc1c(C(C)n2nc(-c3ccc(C(=O)N(C)C)nc3)c3c(N)ncnc32)cc(Cl)c(C)c1-c1ccc(C(=O)N(C)C)nc1` (stereo not drawn) registered an IC50 of 10 to 50 nM.

With `CCOc1c(C(C)n2nc(CNC)c3c(N)ncnc32)cc(Cl)c(C)c1-c1ccc(C(=O)N(C)C)nc1` (stereo not drawn), the IC50 was 50 to 200 nM.

In the case of `COc1c(C(C)n2nc(C)c3c(N)ncnc32)cc(Cl)c(C#N)c1C1CN(C(=O)C(C)C)C1` (stereo not drawn), the half-maximal inhibitory concentration (IC50) is no more than 10 nM.

On to `CCNC(=O)c1c(C)c(Cl)cc(C(C)n2nc(-c3cnc4[nH]ccc4c3)c3c(N)ncnc32)c1OCC` (stereo not drawn), for which the IC50 is no more than 10 nM. The value for `COc1c(C(C)n2nc(C)c3c(N)ncnc32)cc(Cl)c(C)c1-c1ccnc(C(=O)N(C)CCO)c1` (stereo not drawn) was no more than 10 nM; that for `CCS(=O)(=O)N1CC(c2c(C#N)c(Cl)cc(C(C)n3nc(C)c4c(N)ncnc43)c2OC)C1` (stereo not drawn) was no more than 10 nM; that for `CCOc1c(C(C)n2nc(-c3cncc(C#N)c3)c3c(N)ncnc32)cc(Cl)c(C)c1-c1ccc(C(=O)N(C)C)nc1` (stereo not drawn) was no more than 10 nM. With `CCOc1c(C(C)n2nc(C)c3c(N)ncnc32)cc(Cl)c(C#N)c1C1CN(C(=O)NC)C1` (stereo not drawn), the IC50 is no more than 10 nM. The value for `COc1c(C(C)n2nc(C)c3c(N)ncnc32)cc(Cl)c(C)c1-c1cnn(CC(=O)N(C)C)c1` (stereo not drawn) was no more than 10 nM; that for `CCOc1c(C(C)n2nc(C)c3c(N)ncnc32)cc(Cl)c(C)c1-c1cnn(C)c1` (stereo not drawn) was no more than 10 nM. With `COCCN1CC(c2c(C)c(Cl)cc(C(C)n3nc(C)c4c(N)ncnc43)c2OC)C1` (stereo not drawn), the IC50 was no more than 10 nM. The value for `CCOc1c(C(C)n2nc(C)c3c(N)ncnc32)cc(Cl)c(F)c1C1COC(=O)N1` (stereo not drawn) was no more than 10 nM. `CCOc1c(C(C)n2nc(-c3cnc(N)nc3)c3c(N)ncnc32)cc(Cl)c(C)c1-c1ccc(C(=O)N(C)C)nc1` (stereo not drawn) displayed an IC50 of no more than 10 nM. Take `COc1c(C(C)n2ccc(=O)c3c(N)ncnc32)cc(Cl)c(C)c1-c1cncc(C#N)c1` (stereo not drawn): the IC50 was no more than 10 nM.

The compound `CCOc1c(C(C)n2nc(-c3cnn(C)c3)c3c(N)ncnc32)cc(Cl)c(C)c1-c1ccc(C(=O)N(C)C)nc1` (stereo not drawn) had a concentration for half-maximal inhibition (IC50) of no more than 10 nM. With `COc1c(C(C)n2nc(C)c3c(N)ncnc32)cc(Cl)c(C#N)c1C1CN(CC(C)(C)O)C1` (stereo not drawn) the figure was no more than 10 nM.

The compound `COc1c(C(C)n2nc(C)c3c(N)ncnc32)cc(C)c(C#N)c1C1CN(C[C@H](C)O)C1` (stereo partly drawn) showed an IC50 of no more than 10 nM. With `CCOc1c(C(C)n2nc(C)c3c(N)ncnc32)cc(Cl)c(C#N)c1C1CN(C(=O)NC(C)(C)C)C1` (stereo not drawn) the figure was no more than 10 nM; with `CCOc1c(C(C)n2nc(C)c3c(N)ncnc32)cc(Cl)c(C)c1C1CN(C[C@@H](C)O)C1` (stereo partly drawn), no more than 10 nM.

With `COc1c(C(C)n2nc(C)c3c(N)ncnc32)cc(Cl)c(C)c1C1CN(C(=O)[C@@H](C)O)C1` (stereo partly drawn), the IC50 was no more than 10 nM.

Consider `CCOc1c(C(C)n2cc(C)c3c(N)ncnc32)cc(Cl)c(C#N)c1C1CN(CCO)C1` (stereo not drawn), for which the IC50 is no more than 10 nM. The compound `CCOc1c(C(C)n2nc(C)c3c(N)ncnc32)cc(C)c(C#N)c1-c1ccnc(S(C)(=O)=O)c1` (stereo not drawn) showed an IC50 of no more than 10 nM. With `COc1c(C(C)n2nc(C)c3c(N)ncnc32)cc(Cl)c(C)c1C1CN(CC(C)(C)O)C1` (stereo not drawn) the figure was no more than 10 nM; with `COc1c(C(C)n2nc(C(F)F)c3c(N)ncnc32)cc(Cl)c(F)c1C1CN(C(C)C)C1` (stereo not drawn), no more than 10 nM. The value for `CCOc1c(C(C)n2nc(C)c3c(N)ncnc32)cc(C)c(C#N)c1-c1cnn(C)c1` (stereo not drawn) was no more than 10 nM; that for `COc1c(C(C)n2nc(C)c3c(N)ncnc32)cc(Cl)c(C)c1C1CN(C(CO)C(F)(F)F)C1` (stereo not drawn) was no more than 10 nM; that for `CCOc1c(C(C)n2nc(C(F)F)c3c(N)ncnc32)cc(Cl)c(C)c1-c1ccc(C(=O)N(C)C)nc1` (stereo not drawn) was no more than 10 nM.

As to `COc1c(C(C)n2nc(C)c3c(N)ncnc32)cc(Cl)c(C#N)c1C1CN(C[C@H](C)O)C1` (stereo partly drawn), the IC50 is no more than 10 nM. The value for `COc1c(C(C)n2nc(C)c3c(N)ncnc32)cc(Cl)c(C)c1C1CN(C2CCOCC2)C1` (stereo not drawn) was no more than 10 nM. In turn, `CCOc1c(C(C)n2nc(C)c3c(N)ncnc32)cc(Cl)c(C#N)c1-c1ccc(-c2cnn(C)n2)nc1` (stereo not drawn) gave an IC50 of no more than 10 nM. `COc1c(C(C)n2nc(C)c3c(N)ncnc32)cc(Cl)c(C)c1C1CN(C(=O)c2cn[nH]c2)C1` (stereo not drawn) registered an IC50 of no more than 10 nM.

Consider `CCOc1c(C(C)n2nc(CN(C)C)c3c(N)ncnc32)cc(Cl)c(C)c1-c1ccc(C(=O)N(C)C)nc1` (stereo not drawn), for which the IC50 was 50 to 200 nM. Turning to `CCOc1c(C(C)n2nc(C)c3c(N)ncnc32)cc(Cl)c(F)c1C1CN(CC(C)(C)O)C1` (stereo not drawn), the IC50 is no more than 10 nM. With `COc1c(C(C)n2nc(C)c3c(N)ncnc32)cc(Cl)c(C)c1C1CN(C(C)C#N)C1` (stereo not drawn) the figure was no more than 10 nM; with `CCOc1c(C(C)n2nc(C)c3c(N)ncnc32)cc(Cl)c(C#N)c1C1CN(C(=O)C(C)(C)O)C1` (stereo not drawn), no more than 10 nM; with `CCN1CC(c2c(Cl)c(Cl)cc(C(C)n3nc(C)c4c(N)ncnc43)c2OC)C1` (stereo not drawn), no more than 10 nM. With `CCOc1c(C(C)n2nc(C)c3c(N)ncnc32)cc(Cl)c(C#N)c1C1CN(C(C)CO)C1` (stereo not drawn) the figure was no more than 10 nM. Regarding `COc1c(C(C)n2nc(C)c3c(N)ncnc32)cc(Cl)c(C#N)c1C1CN(C)C1` (stereo not drawn), the IC50 was no more than 10 nM. The value for `COc1c(C(C)n2nc(C(F)F)c3c(N)ncnc32)cc(C#N)c(C)c1C1CN(CC(F)F)C1` (stereo not drawn) was no more than 10 nM; that for `CCOc1c(C(C)n2nc(C)c3c(N)ncnc32)cc(Cl)c(C#N)c1C1CN(CC2CCOCC2)C1` (stereo not drawn) was no more than 10 nM; that for `COc1c(C(C)n2nc(C)c3c(N)ncnc32)cc(Cl)c(C)c1C1CN(C[C@@H](O)C(F)(F)F)C1` (stereo partly drawn) was no more than 10 nM.

On to `COc1c(C(C)n2nc(C(F)F)c3c(N)ncnc32)cc(C#N)c(F)c1C1CN(C[C@H](C)O)C1` (stereo partly drawn), for which the IC50 was no more than 10 nM. With `COc1c(C(C)n2nc(C)c3c(N)ncnc32)cc(Cl)c(C#N)c1C1CN(C[C@@H](C)O)C1` (stereo partly drawn) the figure was no more than 10 nM; with `COc1c(C(C)n2nc(C)c3c(N)ncnc32)cc(C#N)c(C)c1-c1cnn(C)c1` (stereo not drawn), 10 to 50 nM. The value for `COc1c(C(C)n2nc(C)c3c(N)ncnc32)cc(Cl)c(C)c1-c1cnn(C2CCN(C(C)=O)CC2)c1` (stereo not drawn) was no more than 10 nM. In the case of `COc1c(C(C)n2nc(C)c3c(N)ncnc32)cc(Cl)c(C)c1C1CN(CC2CC2)C1` (stereo not drawn), the IC50 was no more than 10 nM.

On to `COc1c(C(C)n2nc(C)c3c(N)ncnc32)cc(Cl)c(C)c1-c1ccc(N(C)C)nc1` (stereo not drawn), for which the IC50 was no more than 10 nM. With `CCOc1c(C(C)n2nc(C)c3c(N)ncnc32)cc(C)c(C#N)c1C1CN(C(=O)C(C)(C)O)C1` (stereo not drawn) the figure was no more than 10 nM.

Compound `COc1c(C(C)n2nc(C(F)F)c3c(N)ncnc32)cc(C#N)c(C)c1C1CN(C[C@@H](C)O)C1` (stereo partly drawn) yielded an IC50 of no more than 10 nM.

Regarding `COc1c(C(C)n2nc(C)c3c(N)ncnc32)cc(Cl)c(C#N)c1C1CN(C2CCOCC2)C1` (stereo not drawn), the IC50 was no more than 10 nM.

As for `COc1c(C(C)n2nc(C)c3c(N)ncnc32)cc(Cl)c(Cl)c1C1CN(C(C)C)C1` (stereo not drawn), the IC50 is no more than 10 nM. For the compound `COc1c(C(C)n2ccc(=O)c3c(N)ncnc32)cc(Cl)c(C)c1-c1cncnc1` (stereo not drawn), the IC50 was no more than 10 nM. `COc1c(C(C)n2ccc(=O)c3c(N)ncnc32)cc(Cl)c(C)c1-c1cccnc1` (stereo not drawn) registered an IC50 of no more than 10 nM.
